In ChEMBL document CHEMBL3045721, “Fungicidal Activity of New Diphenylphosphinic Amide Derivatives” (Biosci Biotechnol Biochem, 1992):

Tests used:
[1] = test system: Pseudoperonospora cubensis; assay: Fungicidal activity against Pseudoperonospora cubensis administered through preventive foliar spraying of compound at 25 ppm 1 day before fungal inoculation on cucumber plants assessed as prevention of cucumber downy mildew measured 6 days after inoculation under greenhouse conditions; format: functional
[2] = test system: Pseudoperonospora cubensis; assay: Fungicidal activity against Pseudoperonospora cubensis administered through preventive foliar spraying of compound at 100 ppm 1 day before fungal inoculation on cucumber plants assessed as prevention of cucumber downy mildew measured 6 days after inoculation under greenhouse conditions; format: functional
Cucumis sativus [3] = assay: Toxicity against Pseudoperonospora cubensis infected Cucumis sativus (cucumber) plants administered through preventive foliar spraying of compound at 25 to 100 ppm 1 day before fungal inoculation on cucumber plants measured 6 days after inoculation under greenhouse conditions; format: organism-based; conditions: in vivo, other, 144 h
Cucumis sativus [4] = assay: Toxicity against Pseudoperonospora cubensis infected Cucumis sativus (cucumber) plants administered through preventive foliar spraying of compound at 100 ppm 5 days before fungal inoculation on cucumber plants measured 6 days after inoculation under field test conditions; format: organism-based; conditions: in vivo, other, 144 h
[5] = test system: Pseudoperonospora cubensis; assay: Fungicidal activity against Pseudoperonospora cubensis administered through preventive foliar spraying of compound at 100 ppm 5 days before fungal inoculation on cucumber plants assessed as prevention of cucumber downy mildew measured 6 days after inoculation under field test conditions; format: functional

| Compound | Activity [1] [%] | Activity [2] [%] | Activity (Cucumis sativus [3]) | Activity (Cucumis sativus [4]) | Activity [5] [%] |
| --- | --- | --- | --- | --- | --- |
| CSP(=NP(=S)(c1ccccc1)c1ccccc1)(c1ccccc1)c1ccccc1 | 50 | 82 | Non-toxic |  |  |
| S=P(N=P(SCc1ccccc1)(c1ccccc1)c1ccccc1)(c1ccccc1)c1ccccc1 | 88 | 100 | Non-toxic | Non-toxic | 91 |
| CCOC(=O)CSP(=NP(=O)(c1ccccc1)c1ccccc1)(c1ccccc1)c1ccccc1 | 77 | 92 | Non-toxic |  |  |
| CCOC(=O)C(C)SP(=NP(=O)(c1ccccc1)c1ccccc1)(c1ccccc1)c1ccccc1 (stereo unspecified) | 76 | 90 | Non-toxic |  |  |
| O=C(CSP(=NP(=O)(c1ccccc1)c1ccccc1)(c1ccccc1)c1ccccc1)NCc1ccccc1 | 76 | 93 | Non-toxic |  |  |
| N#CCSP(=NP(=O)(c1ccccc1)c1ccccc1)(c1ccccc1)c1ccccc1 | 74 | 89 | Non-toxic |  |  |
| C/C=C/CSP(=NP(=O)(c1ccccc1)c1ccccc1)(c1ccccc1)c1ccccc1 | 40 | 79 | Non-toxic |  |  |
| O=P(N=P(SCc1ccccc1)(c1ccccc1)c1ccccc1)(c1ccccc1)c1ccccc1 | 86 | 100 | Non-toxic | Non-toxic | 88 |
| CCSP(=NP(=S)(c1ccccc1)c1ccccc1)(c1ccccc1)c1ccccc1 | 47 | 79 | Non-toxic |  |  |
| CCSP(=NP(=O)(c1ccccc1)c1ccccc1)(c1ccccc1)c1ccccc1 | 43 | 82 | Non-toxic |  |  |
| CSP(=NP(=O)(c1ccccc1)c1ccccc1)(c1ccccc1)c1ccccc1 | 41 | 80 | Non-toxic |  |  |
| CCOC(=O)C(C)SP(=NP(=S)(c1ccccc1)c1ccccc1)(c1ccccc1)c1ccccc1 (stereo unspecified) | 70 | 85 | Non-toxic |  |  |
| O=C(CSP(=NP(=S)(c1ccccc1)c1ccccc1)(c1ccccc1)c1ccccc1)NCc1ccccc1 | 73 | 87 | Non-toxic |  |  |
| O=C(CSP(=NP(=O)(c1ccccc1)c1ccccc1)(c1ccccc1)c1ccccc1)Nc1ccccc1 | 75 | 91 | Non-toxic |  |  |
